Results on 26 compounds are retold here after patent publication US12378224B2 (Dong-A Socio Holdings Co., Ltd., priority 2016, dated 2025).

One may read the IC50 as the midpoint of a concentration-inhibition curve. Low readings indicate higher potency, high ones lower potency.

The target of the first assay is human MER (528-end) (Homo sapiens (Human), UniProt Q12866). Put plainly: HTRF Kinase Activity Biochemical Assay (KinEASE-TK). Conditions: 10 uM ATP. The method, boiled down: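 Recombinant human MER (528-end) phosphorylated biotin-TK peptide substrate, 1 h at room temperature. Reaction stopped with detection buffer containing 0.375 nM Eu3+-cryptate anti-TK antibody and 0.062 uM streptavidin-XL665, 1 h further. Activity taken as HTRF ratio 665/620 nm ×10,000, 340 nm excitation.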
Sequence of human MER (528-end) (Q12866 528-999 limits assumed): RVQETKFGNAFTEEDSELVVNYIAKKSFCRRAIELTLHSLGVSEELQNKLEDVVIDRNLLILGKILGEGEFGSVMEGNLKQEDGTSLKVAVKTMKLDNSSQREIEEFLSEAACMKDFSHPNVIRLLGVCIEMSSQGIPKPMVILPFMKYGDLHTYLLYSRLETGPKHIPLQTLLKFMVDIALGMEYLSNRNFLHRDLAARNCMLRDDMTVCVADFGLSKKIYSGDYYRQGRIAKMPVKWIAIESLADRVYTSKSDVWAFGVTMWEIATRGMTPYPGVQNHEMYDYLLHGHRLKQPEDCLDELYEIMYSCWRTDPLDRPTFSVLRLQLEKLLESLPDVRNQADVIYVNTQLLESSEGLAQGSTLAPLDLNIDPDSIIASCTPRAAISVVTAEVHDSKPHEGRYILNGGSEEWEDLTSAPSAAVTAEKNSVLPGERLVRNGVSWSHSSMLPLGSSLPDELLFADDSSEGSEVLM
For orientation: In TR-FRET formats the signal depends on donor and acceptor labels being close together.
Consider `CN1CCN(Cc2ccc(-c3ccc(C(=O)N4CC[C@@H](NC(=O)c5cc(-c6cnn(C)c6)cnc5N)C4)cc3)cc2)CC1` [Example 385, (R)-2-amino-5-(1-methyl-1H-pyrazol-4-yl)-N-(1-(4′-((4-methylpiperazin-1-yl)methyl)-[1,1′-biphenyl]-4-carbonyl)pyrrolidin-3-yl)nicotinamide], for which the IC50 was 10 to 100 nM.

`Cn1cc(-c2cnc(N)c(C(=O)N[C@@H]3CCN(C(=O)c4ccc(/C=C/C5CCNCC5)cc4)C3)c2)cn1` [Example 827, (R,E)-2-amino-5-(1-methyl-1H-pyrazol-4-yl)-N-(1-(4-(2-(piperidin-4-yl)vinyl)benzoyl)pyrrolidin-3-yl)nicotinamide] returned a half-inhibitory concentration (IC50) of more than 1000 nM.

As for `Cc1cc(C(=O)N2CC[C@@H](NC(=O)c3cc(-c4cnn(C)c4)cnc3N)C2)ccc1-c1cc(F)ccc1Cl` [Example 692, (R)-2-amino-N-(1-(2′-chloro-5′-fluoro-2-methyl-[1,1′-biphenyl]-4-carbonyl)pyrrolidin-3-yl)-5-(1-methyl-1H-pyrazol-4-yl)nicotinamide], the concentration for half-maximal inhibition (IC50) was in the range of 10 to 100 nM.

On to `Cc1cc(C(=O)N2CC[C@@H](NC(=O)c3cc(-c4cnn(C)c4)cnc3N)C2)c(N)c(-c2ccccc2)c1` [Example 485, (R)-2-amino-N-(1-(2-amino-5-methyl-[1,1′-biphenyl]-3-carbonyl)pyrrolidin-3-yl)-5-(1-methyl-1H-pyrazol-4-yl)nicotinamide], for which the concentration for half-maximal inhibition (IC50) lay in the range of 100 to 1000 nM.

`Cn1cc(-c2cnc(N)c(C(=O)N[C@@H]3CCN(C(=O)OC4CCCC4)C3)c2)cn1` [Example 106, cyclopentyl (R)-3-(2-amino-5-(1-methyl-1H-pyrazol-4-yl)nicotinamido)pyrrolidine-1-carboxylate] returned an IC50 of more than 1000 nM.

`Cn1cc(-c2cnc(N)c(C(=O)N[C@@H]3CCN(CCCc4ccccc4)C3)c2)cn1` [Example 227, (R)-2-amino-5-(1-methyl-1H-pyrazol-4-yl)-N-(1-(3-phenylpropyl)pyrrolidin-3-yl)nicotinamide] registered an IC50 of more than 1000 nM.

Compound `C/C(=C\c1ccccc1)C(=O)N1CC[C@@H](NC(=O)c2cc(-c3cnn(C)c3)cnc2N)C1` [Example 426, (R,E)-2-amino-5-(1-methyl-1H-pyrazol-4-yl)-N-(1-(2-methyl-3-phenylacryloyl)pyrrolidin-3-yl)nicotinamide] gave an IC50 of more than 1000 nM.

Compound `Cn1cc(-c2cnc(N)c(C(=O)N[C@@H]3CCN(C(=O)O[C@H]4C[C@H]5CC[C@@H]4C5)C3)c2)cn1` [Example 105, (1R,2S,4S)-bicyclo[2.2.1]heptan-2-yl (R)-3-(2-amino-5-(1-methyl-1H-pyrazol-4-yl)nicotinamido)pyrrolidine-1-carboxylate] returned an IC50 of more than 1000 nM.

`Cn1cc(-c2cnc(N)c(C(=O)N[C@@H]3CCN(C(=O)c4ccc(F)cc4Cl)C3)c2)cn1` [Example 716, (R)-2-amino-N-(1-(2-chloro-4-fluorobenzoyl)pyrrolidin-3-yl)-5-(1-methyl-1H-pyrazol-4-yl)nicotinamide] showed an IC50 of more than 1000 nM.

`Cn1cc(-c2cnc(N)c(C(=O)N[C@@H]3CCN(C(=O)Oc4cccc(-c5ccc(CNCCN)cc5)c4)C3)c2)cn1` [Example 307, 4′-(((2-aminoethyl)amino)methyl)-[1,1′-biphenyl]-3-yl (R)-3-(2-amino-5-(1-methyl-1H-pyrazol-4-yl)nicotinamido)pyrrolidine-1-carboxylate] registered a half-inhibitory concentration (IC50) of 100 to 1000 nM.

Compound `Cn1cc(-c2cnc(N)c(C(=O)N[C@@H]3CCN(c4nc5ccccc5[nH]4)C3)c2)cn1` [Example 133, (R)—N-(1-(1H-benzo[d]imidazol-2-yl)pyrrolidin-3-yl)-2-amino-5-(1-methyl-1H-pyrazol-4-yl)nicotinamide] yielded an IC50 of more than 1000 nM.

Turning to `Cn1cc(-c2cnc(N)c(C(=O)N[C@@H]3CCN(C(=O)c4cccc(-c5ccccc5Cl)c4)C3)c2)cn1` [Example 478, (R)-2-amino-N-(1-(2′-chloro-[1,1′-biphenyl]-3-carbonyl)pyrrolidin-3-yl)-5-(1-methyl-1H-pyrazol-4-yl)nicotinamide], the IC50 is more than 1000 nM.

`Cn1cc(-c2cnc(N)c(C(=O)N[C@@H]3CCN(C(=O)OCc4ccccc4)C3)c2)cn1` [Example 80, benzyl (R)-3-(2-amino-5-(1-methyl-1H-pyrazol-4-yl)nicotinamido)pyrrolidine-1-carboxylate] came in with an IC50 of more than 1000 nM.

`Nc1ncc(Br)cc1C(=O)N[C@@H]1CCN(C(=O)Oc2cccc(-c3ccccc3)c2)C1` [Example 85, [1,1′-biphenyl]-3-yl (R)-3-(2-amino-5-bromonicotinamido)pyrrolidine-1-carboxylate] registered a half-maximal inhibitory concentration (IC50) of more than 1000 nM.

In another assay the target is human c-MER catalytic domain (Homo sapiens (Human), UniProt Q12866). Put plainly: TR-FRET Kinase Activity Biochemical Assay (LanthaScreen). The note with it: 10 uM ATP, 1 hour, kinase not given. The source says: For the SAR (structure-activity relationship) and compound screening, LanthaScreen™ TR-FRET (Time-Resolved fluorescence energy transfer) assay was employed using the phospho-tyrosine specific Terbium (Tb)-labelded antibody with a fluorescein labeled poly-GT (glutamate-tyrosine) as a substrate. Upon excitation at 340 nm by UV, the energy from Tb donor of the antibody is transferred to the fluorescein of the phosphorylated poly GT substrate, and fluorescein emits light at 520 nm. The ratio between the intensity of […] was used to quantify the level of kinase activity. The recombinant proteins of human c-MER and AXL catalytic domains, Fluorescein-labeled poly-GT substrate, Tb-labeled anti-phosphorylated tyrosine antibodies, the kinase assay buffer, and 0.5M EDTA solution were purchased (Life technologies, USA). The TR-FRET assays were carried out in the white low volume 384-well plate (Corning, USA). […] 10 mM EDTA was added to terminate the enzyme reaction, and the level of phosphorylation of poly-GT substrate was determined following 30 min incubation with 2 nM Tb-labeled antibody. The fluorescence intensity was measured with Envision™ plate reader (PerkinElmer, USA).
Sequence of human c-MER catalytic domain (Q12866 587-858): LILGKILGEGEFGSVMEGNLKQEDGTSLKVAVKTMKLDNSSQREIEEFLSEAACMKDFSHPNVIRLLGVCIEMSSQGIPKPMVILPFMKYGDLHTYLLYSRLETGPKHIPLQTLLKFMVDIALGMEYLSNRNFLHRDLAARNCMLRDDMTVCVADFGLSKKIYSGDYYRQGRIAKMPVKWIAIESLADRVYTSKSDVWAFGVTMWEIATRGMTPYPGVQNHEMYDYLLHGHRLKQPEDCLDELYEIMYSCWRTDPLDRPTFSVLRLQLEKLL
`Nc1ncc(-c2ccc(C(=O)N3CCOCC3)cc2)cc1C(=O)N[C@@H]1CCN(Cc2ccc(Cl)cc2)C1` [Example 235, (R)-2-amino-N-(1-(4-chlorobenzyl)pyrrolidin-3-yl)-5-(4-(morpholine-4-carbonyl)phenyl)nicotinamide] had a concentration for half-maximal inhibition (IC50) of 100 to 1000 nM.

For `Cn1cc(-c2cnc(N)c(C(=O)N[C@@H]3CCN(C(=O)Nc4ccc(-c5cccc(CN)c5)cc4)C3)c2)cn1` [Example 269, (R)-2-amino-N-(1-((3′-(aminomethyl)-[1,1′-biphenyl]-4-yl)carbamoyl)pyrrolidin-3-yl)-5-(1-methyl-1H-pyrazol-4-yl)nicotinamide], the IC50 lay in the range of 10 to 100 nM.

On to `Cn1cc(-c2cnc(N)c(C(=O)N[C@@H]3CCN(C(=O)c4ccc(-c5ccc(OC6CCNCC6)cc5)cc4)C3)c2)cn1` [Example 531, (R)-2-amino-5-(1-methyl-1H-pyrazol-4-yl)-N-(1-(4′-(piperidin-4-yloxy)-[1,1′-biphenyl]-4-carbonyl)pyrrolidin-3-yl)nicotinamide], for which the IC50 fell in the range of 10 to 100 nM.

For the compound `Cn1cc(-c2cnc(N)c(C(=O)N[C@@H]3CCN(C(=O)Cc4cccc(-c5ccccc5)c4)C3)c2)cn1` [Example 423, (R)—N-(1-(2-([1,1′-biphenyl]-3-yl)acetyl)pyrrolidin-3-yl)-2-amino-5-(1-methyl-1H-pyrazol-4-yl)nicotinamide], the IC50 was more than 1000 nM.

For the compound `CC(/C=C/c1ccc(C(=O)N2CC[C@@H](NC(=O)c3cc(-c4cnn(C)c4)cnc3N)C2)cc1)N1CCN(C)CC1` (stereo partly drawn) [Example 822, 2-amino-5-(1-methyl-1H-pyrazol-4-yl)-N-((3R)-1-(4-((E)-3-(4-methylpiperazin-1-yl)but-1-en-1-yl)benzoyl)pyrrolidin-3-yl)nicotinamide], the IC50 is less than 10 nM.

Compound `Cn1cc(-c2cnc(N)c(C(=O)N[C@@H]3CCN(C(=O)c4nn(C)c5ccccc45)C3)c2)cn1` [Example 499, (R)-2-amino-N-(1-(1-methyl-1H-indazole-3-carbonyl)pyrrolidin-3-yl)-5-(1-methyl-1H-pyrazol-4-yl)nicotinamide] had an IC50 of 100 to 1000 nM.

`Cn1cc(-c2cnc(N)c(C(=O)N[C@@H]3CCN(C(=O)c4cccc(-c5cccc(N6CCCCC6)c5)c4)C3)c2)cn1` [Example 477, (R)-2-amino-5-(1-methyl-1H-pyrazol-4-yl)-N-(1-(3′-(piperidin-1-yl)-[1,1′-biphenyl]-3-carbonyl)pyrrolidin-3-yl)nicotinamide] displayed an IC50 of more than 1000 nM.

The compound `Cn1cc(-c2cnc3[nH]nc(N[C@@H]4CCN(C(=O)c5ccc(-c6ccc7c(c6)CCCN7)cc5)C4)c3c2)cn1` [Example 790, (R)-(3-((5-(1-methyl-1H-pyrazol-4-yl)-1H-pyrazolo[3,4-b]pyridin-3-yl)amino)pyrrolidin-1-yl)(4-(1,2,3,4-tetrahydroquinolin-6-yl)phenyl)methanone] returned a 50% inhibitory concentration (IC50) of 10 to 100 nM.

On to `CN1CCC(Oc2ccc3ccc(OC(=O)N4CC[C@@H](NC(=O)c5cc(-c6cnn(C)c6)cnc5N)C4)cc3c2)CC1` [Example 297, 7-((1-methylpiperidin-4-yl)oxy)naphthalen-2-yl (R)-3-(2-amino-5-(1-methyl-1H-pyrazol-4-yl)nicotinamido)pyrrolidine-1-carboxylate], for which the concentration for half-maximal inhibition (IC50) lay within 100 to 1000 nM.

Take `CN(C)c1ccc(Oc2ccc(-c3ccc(C(=O)N4CC[C@@H](NC(=O)c5cc(-c6cnn(C)c6)cnc5N)C4)cc3)cc2)cc1` [Example 529, (R)-2-amino-N-(1-(4′-(4-(dimethylamino)phenoxy)-[1,1′-biphenyl]-4-carbonyl)pyrrolidin-3-yl)-5-(1-methyl-1H-pyrazol-4-yl)nicotinamide]: the IC50 lay within 10 to 100 nM.

Take `Cn1cc(-c2cnc(N)c(C(=O)N[C@@H]3CCN(C(=O)Oc4cccc(-c5ccc(CNCC6CNC6)cc5)c4)C3)c2)cn1` [Example 309, 4′-(((azetidin-3-ylmethyl)amino)methyl)-[1,1′-biphenyl]-3-yl (R)-3-(2-amino-5-(1-methyl-1H-pyrazol-4-yl)nicotinamido)pyrrolidine-1-carboxylate]: the half-inhibitory concentration (IC50) is 10 to 100 nM.

The compound `Cn1cc(-c2cnc(N)c(C(=O)N[C@@H]3CCN(C(=O)c4ccc(-c5ccc(Oc6cccc(N)c6)cc5)cc4)C3)c2)cn1` [Example 530, (R)-2-amino-N-(1-(4′-(3-aminophenoxy)-[1,1′-biphenyl]-4-carbonyl)pyrrolidin-3-yl)-5-(1-methyl-1H-pyrazol-4-yl)nicotinamide] registered an IC50 of 10 to 100 nM.
